Read-outs that look alike come from different tables or passages of the source.

Data set [1] concerns the target interaction between PD-1 and PD-L1 (Homo sapiens (Human), UniProt Q9NZQ7). The experiment in a line: PD1-PDL1 HTRF binding activity test (Cisbio PD-1/PD-L1 binding assay kit). Background: In TR-FRET formats the signal depends on donor and acceptor labels being close together.
Data set [2] addresses interaction between PD-1 and PD-L1 expressed on cell surfaces (Homo sapiens (Human), UniProt Q9NZQ7). The data set is described as follows: Jurkat reporter gene cellular assay (Jurkat/NF-κB-luc/PD1 cells cocultured with Raji-PD-L1 cells, OKT-3 stimulation). Type of data set: cell-based. The method, boiled down:
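EC50 comes from non-linear regression of activation fold (compound reading over DMSO reading) against concentration. Read-out was luciferase signal 6 h after OKT-3-stimulated coculture of PD-1/NF-κB-luc Jurkat cells with PD-L1-expressing Raji cells, 5*10^4 cells each per well.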

Data set [3] in a line: Pharmacokinetic assay in mice, per oral administration. Format: in vivo. Particulars: ICR mice. From the text: C. Pharmacokinetic Assay in Mice
The purpose of this study was to study the pharmacokinetic behaviors of some compounds of the present invention, and administration routes were: per oral administration (PO) to ICR mice:
The compounds used in this test came from the compounds of the specific examples of the present invention.
ICR mice male N=3 original source: Shanghai Sippr-BK Laboratory Animal Co. Ltd.
2.3 Preparation and Administration of Medicaments
The compounds were weighed, and dissolved in solvent of 0.5% SDS+0.5% CMCNa. The mixture solutions were mixed well by shaking and ultrasonic treatment to obtain colorless clear solutions. The solutions were orally administered to nine mice after an overnight fast. The dosage of administration was 10 mg/kg (or 30 mg/kg).
With about 90 μL/time point, blood was drawn from the submaxillary vein, and heparin sodium was added for anticoagulation. The blood samples were placed onto the ice, and were centrifuged (centrifugation conditions: 8000 r/min, 6 min, 2-8° C.) within 1 hr to obtain plasmas. The time points for blood sampling were at 0 hr, 0.25 hr, 0.5 hr, 1 hr, 2 hrs, 4 hrs, 6 hrs, 8 hrs and 24 hrs after administration. The samples were stored in a refrigerator at −20° C.
40 μL of plasma sample was added to 160 μL of cold acetonitrile containing an internal standard, and the mixture solution was vortexed for 3 min and centrifuged at 11,000 r/min for 5 min. 100 μL of supernate was taken and added to 100 μL of water, and 5 μL of the sample was taken and analyzed by LC/MS/MS. Only the original compounds were analyzed for examples 1, 3, 5, 8, 46 and 141 (for results, see table 2); and both the original compounds and possible products of ester hydrolysis, namely example 2, 27, 65 and 105, were analyzed for examples 4, 26, 64 and 104 (for results, see table 3).

[4] abbreviates: male, mouse, plasma, PO 10 mg/kg, original compound analyzed.
The mark [5] stands for this setting: male, mouse, plasma, PO 10 mg/kg, original compound analyzed, class symbol.
Where [6] appears, read: male, mouse, PO 10 mg/kg, plasma, original compound analyzed, class symbol, read-out: Cmax.
The mark [7] stands for this setting: read-out: PD1-PDL1 HTRF Binding Activity IC50.
The mark [8] stands for this setting: NF-κB-luc reporter activation fold, 6 hrs, read-out: Cell Activity EC50.
Where [9] appears, read: male, mouse, plasma, PO 30 mg/kg, original compound (ester) analyzed.
[10] abbreviates: male, mouse, plasma, PO 30 mg/kg, original compound (ester) analyzed, class symbol.
[11] abbreviates: male, mouse, plasma, PO 30 mg/kg, original compound (ester) analyzed, class symbol, read-out: Cmax.

Chain of interaction between PD-1 and PD-L1 (Q9NZQ7 19-238): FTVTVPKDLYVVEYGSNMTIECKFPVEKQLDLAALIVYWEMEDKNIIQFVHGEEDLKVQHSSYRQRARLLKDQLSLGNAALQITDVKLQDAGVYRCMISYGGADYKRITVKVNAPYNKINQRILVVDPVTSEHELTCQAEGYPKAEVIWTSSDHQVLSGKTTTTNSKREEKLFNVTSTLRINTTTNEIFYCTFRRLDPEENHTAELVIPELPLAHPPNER
Chain of interaction between PD-1 and PD-L1 expressed on cell surfaces (Q9NZQ7 19-290): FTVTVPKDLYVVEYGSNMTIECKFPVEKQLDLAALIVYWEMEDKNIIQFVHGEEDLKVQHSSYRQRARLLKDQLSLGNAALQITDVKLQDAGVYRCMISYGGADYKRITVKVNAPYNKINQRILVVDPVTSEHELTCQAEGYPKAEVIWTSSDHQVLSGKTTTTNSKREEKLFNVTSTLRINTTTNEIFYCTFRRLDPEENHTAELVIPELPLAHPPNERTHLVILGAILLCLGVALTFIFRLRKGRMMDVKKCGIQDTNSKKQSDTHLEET

The term IC50 denotes the point on the concentration scale where inhibition reaches its midpoint. As a reminder, the EC50 is the midpoint of the concentration-response curve. A word on the MRT: it is the average time that molecules of a dose stay in the body. For orientation: Tmax means the time at which the peak concentration occurs. For orientation: half-life means how long it takes for the measured level to halve. For orientation: AUC(0-t) means the area under the concentration-time curve up to a stated or last time point. Read a low AUC(0-t) as low exposure. In general, Cmax refers to the highest concentration seen after dosing. On to `Cc1c(NC(=O)c2ccc(CNCCO)cn2)cccc1-c1cccc(NC(=O)c2ccc(CNCCO)cn2)c1C` [Example 1, N,N′-(2,2′-dimethyl-[1,1′-biphenyl]-3,3′-diyl)bis(5-(((2-hydroxyethyl)amino)methyl)picolinamide)], for which the 50% inhibitory concentration (IC50) in data set [1] came to 0.17 nM. In data set [2], this molecule gave an EC50 of 137 nM. Further, in data set [3] (setting [4]), the MRT stood at 3.3 h, the Tmax amounted to 1 h and the half-life is 2.4 h. The exposure AUC(0-t) in data set [3] (setting [5]) is ≤ 500 ng·h/mL. In data set [3] (setting [6]), the Cmax is ≤ 100 ng/mL.
For `COc1cc(C(=O)Nc2cccc(-c3cccc(NC(=O)c4cc(OC)c(CNCCO)cn4)c3C)c2C)ncc1CNCCO` [Example 3, N,N′-(2,2′-dimethyl-[1,1′-biphenyl]-3,3′-diyl)bis(5-(((2-hydroxyethyl)amino)methyl)-4-methoxypicolinamide)], the IC50 in data set [1] (setting [7]) turned out to be 0.2 nM. In addition, the EC50 in data set [2] (setting [8]) worked out at 37 nM. In addition, in data set [3] (setting [4]), the MRT turned out to be 16.7 h, the time to peak (Tmax) stood at 0.5 h and the half-life was 12.9 h. The AUC(0-t) in data set [3] (setting [5]) was > 2000 ng·h/mL. The Cmax in data set [3] (setting [6]) fell in the range of 100 to 500 ng/mL.
Turning to `COC(=O)[C@@H](CO)NCc1cnc(C(=O)Nc2cccc(-c3cccc(NC(=O)c4cc(OC)c(CN[C@H](CO)C(=O)OC)cn4)c3C)c2C)cc1OC` [Example 4, dimethyl 2,2′-((((((2,2′-dimethyl-[1,1′-biphenyl]-3,3′-diyl)bis(azanediyl))bis(carbonyl))bis(4-methoxypyridine-6,3-diyl))bis(methylene))bis(azanediyl))(2R,2′R)-bis(3-hydroxypropanoate)], in data set [1] (setting [7]), the concentration for half-maximal inhibition (IC50) came out at 0.064 nM. For the same molecule, the EC50 in data set [2] (setting [8]) amounted to 1340 nM. In addition, the maximum concentration (Cmax) result in data set [3] (PO 30 mg/kg, original compound (ester) analyzed) is given as “BQL”. Moreover, the “ester hydrolysis in the bodies of the mice after oral administration” value (“ester hydrolysis in the bodies” for short) in data set [3] is listed as “rapidly became corresponding acids”.
`Cc1cc(C(=O)Nc2cccc(-c3cccc(NC(=O)c4cc(C)c(CNCCO)cn4)c3C)c2C)ncc1CNCCO` [Example 5, N,N′-(2,2′-dimethyl-[1,1′-biphenyl]-3,3′-diyl)bis(5-(((2-hydroxyethyl)amino)methyl)-4-methylpicolinamide)]: in data set [1] (setting [7]), the concentration for half-maximal inhibition (IC50) was determined as 0.36 nM. Besides, the EC50 in data set [2] (setting [8]) was 64 nM. For the same molecule, in data set [3] (setting [4]), the AUC(0-t) is 1680 ng·h/mL, the MRT worked out at 10.2 h, the Tmax amounted to 2 h and the half-life was 8.3 h. Further, in data set [3] (setting [6]), the Cmax was in the range of 100 to 500 ng/mL.
Turning to `Cc1cc(C(=O)Nc2cccc(-c3cccc(NC(=O)c4cc(C)c(CNC(CO)CO)cn4)c3C)c2C)ncc1CNC(CO)CO` [Example 8, N,N′-(2,2′-dimethyl-[1,1′-biphenyl]-3,3′-diy)bis(5-(((1,3-dihydroxypropan-2-yl)amino)methyl)-4-methylpicolinamide)], the IC50 in data set [1] (setting [7]) came to 0.41 nM. Also, the half-maximal effective concentration (EC50) in data set [2] (setting [8]) came out at 186 nM. Besides, in data set [3] (setting [4]), the MRT was determined as 5.4 h, the Tmax turned out to be 2 h and the half-life was 3 h. In data set [3] (setting [5]), this molecule displayed an AUC(0-t) of 500 to 2000 ng·h/mL. Besides, in data set [3] (male, mouse, PO 10 mg/kg, plasma, original compound analyzed, read-out: Cmax), the peak concentration (Cmax) turned out to be 319 ng/mL.
`COC(=O)[C@@H]1CCCCN1Cc1cnc(C(=O)Nc2cccc(-c3cccc(NC(=O)c4cc(C)c(CN5CCCC[C@H]5C(=O)OC)cn4)c3C)c2C)cc1C` [Example 26, dimethyl 1,1′-(((((2,2′-dimethyl-[1,1′-biphenyl]-3,3′-diyl)bis (azanediyl))bis(carbonyl))bis (4-methylpyridine-6,3-diyl))bis(methylene))(2S,2′S)-bis (piperidine-2-carboxylate)]: in data set [1] (setting [7]), the half-maximal inhibitory concentration (IC50) came out at 65.3 nM. Moreover, in data set [3] (setting [9]), the mean residence time (MRT) was determined as 7 h, the Tmax came to 6 h and the half-life is 3.6 h. Besides, in data set [3] (setting [10]), the AUC(0-t) was > 2000 ng·h/mL. For the same molecule, the Cmax in data set [3] (setting [11]) is > 500 ng/mL. The “ester hydrolysis in the bodies” value in data set [3] was “no product of ester hydrolysis was detected”.
With `Cc1cc(C(=O)Nc2cccc(-c3cccc(NC(=O)c4cc(C)c(CN5CCCC[C@H]5C(=O)O)cn4)c3C)c2C)ncc1CN1CCCC[C@H]1C(=O)O` [Example 27, (2S,2′S)-1,1′-(((((2,2′-dimethyl-[1,1′-biphenyl]-3,3′-diyl)bis(azanediyl))bis(carbonyl))bis(4-methylpyridine-6,3-diyl))bis (methylene))bis(piperidine-2-carboxylic acid)], the IC50 in data set [1] (setting [7]) amounted to 0.28 nM. Besides, the EC50 in data set [2] (setting [8]) was determined as 128 nM. Also, the Cmax result in data set [3] (product of ester hydrolysis analyzed after PO 30 mg/kg of the ester (2 after 4, 27 after 26, 65 after 64)) was “BQL”.
`COc1cc(C(=O)Nc2cccc(-c3cccc(NC(=O)c4cc(OC)c(CN5CC(C)(O)C5)cn4)c3C)c2C)ncc1CN1CC(C)(O)C1` [Example 46, N,N'-(2,2′-dimethyl-[1,1′-biphenyl]-3,3′-diyl)bis(5-((3-hydroxy-3-methylazetidin-1-yl)methyl)-4-methoxypicolinamide)]: in data set [1] (setting [7]), the 50% inhibitory concentration (IC50) was determined as 0.25 nM. Also, in data set [2] (setting [8]), the EC50 stood at 64 nM. In data set [3] (setting [4]), the mean residence time (MRT) worked out at 15.5 h, the Tmax was determined as 4 h and the half-life is 10.7 h. In data set [3] (setting [5]), this molecule registered an AUC(0-t) of 500 to 2000 ng·h/mL. For the same molecule, the Cmax in data set [3] (setting [6]) was ≤ 100 ng/mL.
`COC(=O)[C@@H]1CCCCN1Cc1cnc(C(=O)Nc2cccc(-c3cccc(NC(=O)c4cc(OC)c(CN5CCCC[C@H]5C(=O)OC)cn4)c3C)c2C)cc1OC` [Example 64]: the IC50 in data set [1] (setting [7]) was found to be 10.7 nM. In addition, the EC50 in data set [2] (setting [8]) came out at 1860 nM. In data set [3] (setting [9]), the MRT came to 4.6 h, the time of peak concentration (Tmax) came to 2 h and the half-life was 3.7 h. Moreover, the AUC(0-t) in data set [3] (setting [10]) was > 2000 ng·h/mL. The highest concentration (Cmax) in data set [3] (setting [11]) was > 500 ng/mL. Moreover, in data set [3], the “ester hydrolysis in the bodies” value was “no product of ester hydrolysis was detected”.
As to `Cc1c(NC(=O)c2cc(C3CC3)c(CNC[C@@H](O)CC(=O)O)cn2)cccc1-c1cccc(NC(=O)c2cc(C3CC3)c(CNC[C@@H](O)CC(=O)O)cn2)c1C` [Example 136, (3S,3′S)-4,4′-((((((2,2′-dimethyl-[1,1′-biphenyl]-3,3′-diyl)bis(azanediyl))bis (carbonyl))bis(4-cyclopropylpyridine-6,3-diyl))bis(methylene))bis(azanediyl)) bis(3-hydroxybutanoic acid)], the IC50 in data set [1] (setting [7]) turned out to be 0.32 nM. For the same molecule, the EC50 in data set [2] (setting [8]) was 27.4 nM.
With `Cc1c(NC(=O)c2cc(C3CC3)c(CNC[C@@H]3CCC(=O)N3)cn2)cccc1-c1cccc(NC(=O)c2cc(C3CC3)c(CNC[C@@H]3CCC(=O)N3)cn2)c1C` [Example 137, N,N′-(2,2′-dimethyl-[1,1′-biplienyl]-3,3′-diyl)bis(4-cyclopropyl-5-(((((S)-5-oxopyrrolidin-2-yl)methyl)amino)methyl)picolinamide)], in data set [1] (setting [7]), the 50% inhibitory concentration (IC50) was 2.07 nM. The concentration for a half-maximal effect (EC50) in data set [2] (setting [8]) was found to be 108 nM.
For `Cc1c(NC(=O)c2cc(C3CC3)c(CNCCF)cn2)cccc1-c1cccc(NC(=O)c2cc(C3CC3)c(CNCCF)cn2)c1C` [Example 138, N,N′-(2,2′-dimethyl-[1,1′-biphenyl]-3,3′-diyl)bis(4-cyclopropyl-5-(((2-fluoroethyl)amino)methyl)picolinamide)], in data set [1] (setting [7]), the IC50 came out at 5.03 nM. In addition, in data set [2] (setting [8]), the EC50 amounted to 581 nM.
For `Cc1c(NC(=O)c2cc(C3CC3)c(CNCC(F)F)cn2)cccc1-c1cccc(NC(=O)c2cc(C3CC3)c(CNCC(F)F)cn2)c1C` [Example 139, N,N′-(2,2′-dimethyl-[1,1′-biphenyl]-3,3′-diyl)bis(4-cyclopropyl-5-(((2,2-difluoroethyl)amino)methyl)picolinamide)], in that order: 120 nM and > 10000 nM.
For `Cc1c(NC(=O)c2cc(C3CC3)c(CNCC(F)(F)F)cn2)cccc1-c1cccc(NC(=O)c2cc(C3CC3)c(CNCC(F)(F)F)cn2)c1C` [Example 140, N,N′-(2,2′-dimethyl-[1,1′-biphenyl]-3,3′-diyl)bis(4-cyclopropyl-5-(((2,2,2-trifluoroethyl)amino)methyl)picolinamide)], in that order: 15.1 nM and 2710 nM.
Regarding `Cc1cc(C(=O)Nc2cccc(-c3ccccc3)c2C)ncc1CNCCO` [Positive compound, reference compound], the IC50 in data set [1] (setting [7]) was 2.4 nM. For the same molecule, the 50% effective concentration (EC50) in data set [2] (setting [8]) is > 10000 nM.
